From ChEMBL document CHEMBL4138254 (ACS Med Chem Lett, 2017)

Tests used:
Autotaxin [1] = biological target: T1, Autotaxin (Rattus norvegicus, UniProt Q64610); test: Inhibition of recombinant rat ATX using LPC 18:1 as substrate after 2 hrs by rapidfire/MS-based analysis
Autotaxin [2] = biological target: T1, Autotaxin; test: Inhibition of ATX in rat whole blood using LPA 17:0 as substrate after 1 hr by LC-MS/MS analysis
[3] = Protein binding in human plasma; type: ADME, cell-free; conditions: read-out: PPB
[4] = Protein binding in rat plasma; type: ADME, cell-free; conditions: read-out: PPB
Rattus norvegicus [5] = test: Dose normalized AUC in Han Wistar rat at 1 mg/kg, iv; type: ADME, organism-based; conditions: in vivo
Rattus norvegicus [6] = test: Dose normalized AUC in Han Wistar rat at 10 mg/kg, po; type: ADME, organism-based; conditions: in vivo
Rattus norvegicus [7] = test: Clearance in Han Wistar rat at 1 mg/kg, iv relative to hepatic blood flow; type: ADME, organism-based; conditions: in vivo
[8] = Volume of distribution at steady state in Han Wistar rat at 1 mg/kg, iv; type: ADME, organism-based; conditions: in vivo, read-out: Vdss
Rattus norvegicus [9] = test: Dose normalized Cmax in Han Wistar rat at 10 mg/kg, po; type: ADME, organism-based; conditions: in vivo
[10] = Tmax in Han Wistar rat at 10 mg/kg, po; type: ADME, organism-based; conditions: in vivo
[11] = Half life in Han Wistar rat at 1 mg/kg, iv; type: ADME, organism-based; conditions: in vivo
[12] = Half life in Han Wistar rat at 10 mg/kg, po; type: ADME, organism-based; conditions: in vivo
[13] = Oral bioavailability in Han Wistar rat at 10 mg/kg; type: ADME, organism-based; conditions: in vivo
Rattus norvegicus [14] = test: In vivo inhibition of ATX in Han Wistar rat assessed as decrease in plasma LPA 18:0 species level measured up to 24 hrs by LC-MS/MS analysis relative to control; type: functional
Rattus norvegicus [15] = test: In vivo inhibition of ATX in Han Wistar rat assessed as decrease in plasma LPA 18:2 species level measured up to 24 hrs by LC-MS/MS analysis relative to control; type: functional
Rattus norvegicus [16] = test: In vivo inhibition of ATX in Han Wistar rat assessed as decrease in plasma LPA 16:0 species level measured up to 24 hrs by LC-MS/MS analysis relative to control; type: functional
Rattus norvegicus [17] = test: In vivo inhibition of ATX in Han Wistar rat assessed as decrease in plasma LPA 18:1 species level measured up to 24 hrs by LC-MS/MS analysis relative to control; type: functional
Rattus norvegicus [18] = test: In vivo inhibition of ATX in Han Wistar rat assessed as decrease in plasma LPA 20:4 species level measured up to 24 hrs by LC-MS/MS analysis relative to control; type: functional
[19] = biological target: 5-hydroxytryptamine receptor 2A (Homo sapiens) (UniProt P28223); test: Inhibition of recombinant human 5-HT2A receptor at 10 uM after 60 mins by scintillation counting analysis relative to control
Chain of 5-hydroxytryptamine receptor 2A (Homo sapiens) (P28223 whole entry): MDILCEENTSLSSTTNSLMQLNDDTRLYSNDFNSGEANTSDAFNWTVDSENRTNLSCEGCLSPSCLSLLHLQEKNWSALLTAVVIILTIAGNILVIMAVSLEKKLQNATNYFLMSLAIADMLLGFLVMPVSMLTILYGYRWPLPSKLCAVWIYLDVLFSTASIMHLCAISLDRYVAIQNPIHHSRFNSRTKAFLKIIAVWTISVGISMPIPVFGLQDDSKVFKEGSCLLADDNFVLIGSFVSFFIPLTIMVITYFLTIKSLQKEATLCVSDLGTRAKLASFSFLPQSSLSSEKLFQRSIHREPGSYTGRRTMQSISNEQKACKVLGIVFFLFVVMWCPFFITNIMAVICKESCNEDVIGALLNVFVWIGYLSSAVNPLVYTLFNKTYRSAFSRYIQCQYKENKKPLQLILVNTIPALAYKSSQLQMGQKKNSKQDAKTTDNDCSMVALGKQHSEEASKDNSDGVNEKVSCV

L-type calcium channel = L-type calcium channel (Homo sapiens, UniProt O60840+Q01668+Q13698+Q13936); test: Inhibition of L-type calcium channel (unknown origin) at 10 uM relative to control; type: protein assay
Homo sapiens = species: Homo sapiens; test: Inhibition of sodium channel site 2 (unknown origin) at 10 uM relative to control
[20] = biological target: Sodium-dependent noradrenaline transporter (Homo sapiens) (UniProt P23975); test: Inhibition of norepinephrine transporter (unknown origin) at 10 uM relative to control
Chain of Sodium-dependent noradrenaline transporter (Homo sapiens) (P23975 whole entry): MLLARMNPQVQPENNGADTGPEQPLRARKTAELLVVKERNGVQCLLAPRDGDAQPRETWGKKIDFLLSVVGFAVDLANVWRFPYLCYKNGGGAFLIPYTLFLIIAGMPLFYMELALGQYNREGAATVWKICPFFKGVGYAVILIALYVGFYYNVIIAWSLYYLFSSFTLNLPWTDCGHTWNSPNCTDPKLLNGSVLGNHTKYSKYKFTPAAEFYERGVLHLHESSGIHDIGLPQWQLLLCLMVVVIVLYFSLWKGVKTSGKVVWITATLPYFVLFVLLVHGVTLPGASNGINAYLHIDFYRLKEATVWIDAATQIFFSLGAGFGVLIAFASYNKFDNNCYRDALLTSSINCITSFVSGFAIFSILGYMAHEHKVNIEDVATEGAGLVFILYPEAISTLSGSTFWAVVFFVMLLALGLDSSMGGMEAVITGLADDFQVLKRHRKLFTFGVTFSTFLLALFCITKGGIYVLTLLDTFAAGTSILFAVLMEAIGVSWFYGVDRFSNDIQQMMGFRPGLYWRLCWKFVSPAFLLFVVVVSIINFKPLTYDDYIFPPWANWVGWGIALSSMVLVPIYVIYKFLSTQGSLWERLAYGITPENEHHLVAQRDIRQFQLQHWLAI

Rattus norvegicus [21] = test: In vivo inhibition of ATX in Han Wistar rat assessed as decrease in plasma LPA species level measured up to 24 hrs by LC-MS/MS analysis; type: functional, organism-based
[22] = biological target: Voltage-gated inwardly rectifying potassium channel KCNH2 (Homo sapiens, UniProt Q12809)
Chain of Voltage-gated inwardly rectifying potassium channel KCNH2 (Q12809 whole entry): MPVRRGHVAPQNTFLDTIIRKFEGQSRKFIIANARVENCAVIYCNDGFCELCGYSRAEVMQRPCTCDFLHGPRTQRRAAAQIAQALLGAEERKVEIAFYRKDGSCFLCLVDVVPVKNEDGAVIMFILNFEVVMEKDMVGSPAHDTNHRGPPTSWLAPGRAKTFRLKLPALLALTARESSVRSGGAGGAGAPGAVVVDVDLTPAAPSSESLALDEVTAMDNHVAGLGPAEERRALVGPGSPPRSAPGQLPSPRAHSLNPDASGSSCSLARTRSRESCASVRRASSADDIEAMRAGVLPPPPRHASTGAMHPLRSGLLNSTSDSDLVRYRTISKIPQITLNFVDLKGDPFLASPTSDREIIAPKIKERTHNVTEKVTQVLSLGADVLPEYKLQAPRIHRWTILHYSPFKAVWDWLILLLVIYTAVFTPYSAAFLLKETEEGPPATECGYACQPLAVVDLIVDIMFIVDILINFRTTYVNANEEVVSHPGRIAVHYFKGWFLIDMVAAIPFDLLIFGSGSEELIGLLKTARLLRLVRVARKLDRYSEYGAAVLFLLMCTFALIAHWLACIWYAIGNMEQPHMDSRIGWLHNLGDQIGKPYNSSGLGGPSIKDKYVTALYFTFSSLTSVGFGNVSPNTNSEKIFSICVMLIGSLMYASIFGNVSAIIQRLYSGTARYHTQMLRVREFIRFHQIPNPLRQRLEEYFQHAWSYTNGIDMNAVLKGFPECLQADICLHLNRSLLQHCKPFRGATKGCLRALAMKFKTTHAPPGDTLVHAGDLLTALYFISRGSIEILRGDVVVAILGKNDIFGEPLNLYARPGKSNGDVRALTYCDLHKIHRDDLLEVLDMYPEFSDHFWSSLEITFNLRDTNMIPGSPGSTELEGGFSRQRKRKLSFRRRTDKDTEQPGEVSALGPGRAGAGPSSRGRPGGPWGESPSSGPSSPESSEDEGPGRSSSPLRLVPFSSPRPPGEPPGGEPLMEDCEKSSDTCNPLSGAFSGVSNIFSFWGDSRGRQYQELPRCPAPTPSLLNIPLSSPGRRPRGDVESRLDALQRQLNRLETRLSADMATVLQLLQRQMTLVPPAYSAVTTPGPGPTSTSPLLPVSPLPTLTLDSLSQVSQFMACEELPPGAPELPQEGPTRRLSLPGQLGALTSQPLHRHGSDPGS
Description: Inhibition of human ERG expressed in HEK293 cells by patch clamp assay

physchem [23] = conditions: pH 2.2 buffer solution
Description: Aqueous solubility of the compound in pH 2.2 buffer solution after 24 hrs by LC-UV analysis

physchem [24] = conditions: pH 4.5 buffer solution
Description: Aqueous solubility of the compound in pH 4.5 buffer solution after 24 hrs by LC-UV analysis

physchem [25] = conditions: pH 6.8 buffer solution
Description: Aqueous solubility of the compound in pH 6.8 buffer solution after 24 hrs by LC-UV analysis

in vitro = conditions: human, Caco-2
Description: Apparent permeability across apical to basolateral side in human Caco2 cells at 10 uM measured up to 90 mins

O=C(NC[C@@H]1[C@H]2CN(C(=O)OCc3cc(C(F)(F)F)cc(C(F)(F)F)c3)C[C@@H]12)c1ccc2[nH]nnc2c1 [BI 2545]
IC50 (Autotaxin [1]): 3.4 nM
IC50 (Autotaxin [2]): 96 nM
fraction unbound [3]: < 0.002
fraction unbound [4]: < 0.002
AUC/dose (Rattus norvegicus [5]): 2320 nM·h
AUC/dose (Rattus norvegicus [6]): 675 nM·h
CL (Rattus norvegicus [7]): 10%
Vd [8]: 0.9 L/kg
Cmax/dose (Rattus norvegicus [9]): 149 nM
Tmax [10]: 1.7 h
half-life [11]: 1.8 h
half-life [12]: 3.4 h
bioavailability [13]: 30%
inhibition (INH) (Rattus norvegicus [14]): <=90%
inhibition (INH) (Rattus norvegicus [15]): <=90%
inhibition (INH) (Rattus norvegicus [16]): <=90%
inhibition (INH) (Rattus norvegicus [17]): <=90%
inhibition (INH) (Rattus norvegicus [18]): <=90%
inhibition [19]: 55%
inhibition at 10 µM (L-type calcium channel): 80%
inhibition (Homo sapiens): 66%
inhibition [20]: 61%
IC50 (Rattus norvegicus [21]): 100 nM
IC50 [22]: > 10000 nM
solubility at 24 h (physchem [23]): < 1 µg/mL
solubility at 24 h (physchem [24]): < 1 µg/mL
solubility at 24 h (physchem [25]): < 1 µg/mL
Papp A→B at 1.5 h, 10 µM (in vitro): 9 ×10⁻⁶ cm/s
